The values below come from patent publication US8703438B2, “Ligand binding stabilization method for drug target identification” (The Regents of the University of California, priority 2008, dated 2014).

Data set [1] concerns C. elegans N2 worms. In words: C. elegans lifespan analysis. It is filed as in vivo. Conditions: resveratrol 50 μM. From the text:
(§1) FIG. 4A: Chemical structure of resveratrol. FIG. 4B: Yeast cell lysates and human HeLa cell lysates were each treated with resveratrol in vitro followed by thermolysin digestion and silver staining. Protected bands of similar size were detected. FIG. 4C: Resveratrol protects TAP-tagged eIF4A, but not an unrelated Htb2, protein from proteolysis. Arrow: protein protected from subtilisin proteolysis (H. sapiens (SEQ ID NO:1), M. musculus (SEQ ID NO:2), X. laevis (SEQ ID NO:3), D. melanogaster (SEQ ID NO:4), C. elegans (SEQ ID NO:5), S. purpuratus (SEQ ID NO:6), C. reinhardtii (SEQ ID NO:7), A. thaliana (SEQ ID NO:8), H. andersenii (SEQ ID NO:9), S. cerevisiae (SEQ ID NO:10)). FIG. 4D: Resveratrol inhibits eIF4A-dependent translation in HEK 293 cells as assayed by bicistronic translation reporters. […] FIG. 4E: eIF4A is required for longevity in resveratrol-treated animals. Resveratrol (50 μM) lengthens the lifespan of wild-type N2 worms fed control (gfp) RNAi (green), but not worms fed eIF4A (inf-1) RNAi (red) or daf-16 RNAi (blue). gfp(RNAi), mVeh=19 (n=74), mRSV=20 (n=78), P=0.0006***; inf-1(RNAi), mVeh=26 (n=76), mRSV=24 (n=79), P=0.4687; daf-16(RNAi), mVeh=17 (n=78), mRSV=17 (n=76), P=0.3305. m, mean lifespan (days of adulthood); n, number of animals tested.
N2 wild-type strains were maintained at 20° C. on standard nematode growth medium (NGM) seeded with E. coli OP50 as described (Brenner (1974) Genetics 77: 71-94). E. coli RNAi strains were obtained from Open Biosystems; clones were verified by sequencing. To make NGM plates containing resveratrol or vehicle, 240 μl of a solution containing 2.5 mM resveratrol (or the equivalent amount of ethanol, for vehicle control), 20% DMSO, 20% ethanol, 10% phosphate buffered saline (PBS), and 50% ddH20 were spread on top of the NGM plate, making a 50 μM final concentration of resveratrol in the plate. Resveratrol was dissolved in 95% ethanol and stored in 4° C.
Lifespan analysis was conducted with N2 worms at 20° C. Eggs were added to NGM plates containing OP50. […]

Data set [2] can be described thus: Precipitation in yeast culture medium. Conditions: final concentration ˜1 mM. It is filed as physicochemical. The source says:
For cytotoxic and cytostatic small molecules, deletion mutants in their target often would have increased sensitivity to the drug (and overexpression could decrease sensitivity). Indeed, this is the basis for the elegant haploinsufficiency profiling (HIP) strategy (Giaever et al. (1999) Nat Genet. 21: 278-283). However, an inherent limitation of this type of fitness-based methods is that they are applicable only to drugs that affect cell growth/viability, i.e., cytotoxic or cytostatic drugs. […] A key advantage of DARTS is that it is independent of the drug's biological phenotype, and thus is not limited to the studies of cytotoxic/cytostatic drugs or drugs that induce transcriptional or morphological changes which have been the limitation of previous methods.

For data set [3], the target named is T1, TAP-tagged Tif1 (eIF4A) (Saccharomyces cerevisiae, UniProt P10081).
T1 construct: endogenous in cells; host or cells: TAP-tagged eIF4A yeast strain (Ghaemmaghami et al. 2003 collection)
T1 sequence (P10081 1-395): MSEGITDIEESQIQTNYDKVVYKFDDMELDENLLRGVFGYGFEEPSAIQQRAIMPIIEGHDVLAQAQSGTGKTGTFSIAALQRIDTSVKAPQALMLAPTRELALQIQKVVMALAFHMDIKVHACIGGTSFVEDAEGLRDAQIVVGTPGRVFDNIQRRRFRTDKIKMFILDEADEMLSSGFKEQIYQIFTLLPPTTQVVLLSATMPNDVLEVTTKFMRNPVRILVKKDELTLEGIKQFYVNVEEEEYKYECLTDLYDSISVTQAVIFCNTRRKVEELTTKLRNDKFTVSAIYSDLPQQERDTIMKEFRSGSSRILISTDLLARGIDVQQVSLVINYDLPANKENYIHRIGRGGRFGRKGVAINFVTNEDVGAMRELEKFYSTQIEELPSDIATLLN
In words: DARTS western blot with TAP-tagged eIF4A yeast strain. It is filed as binding. Conditions: FIG. 10.
Text: as §1
Arrow: protein protected from proteolysis. […]

Data set [4] addresses Tif1 A64Q point mutant (Saccharomyces cerevisiae, UniProt P10081, A64Q). In words: DARTS target mutation analysis. Type of data set: binding, yeast. Conditions: FIG. 4C. From the text:
This enrichment was confirmed by western blotting using the TAP-tagged (Ghaemmaghami et al. (2003) Nature 425: 737-741) eIF4A yeast strain (FIG. 10). […] While the alanine is conserved throughout fungi and animals, plants have a glutamine at this position and the bulkier side chain is hypothesized to protect plant eIF4A from resveratrol inhibition by minimizing self binding.

Tif1 A64Q point mutant, sequence (P10081 whole entry A64Q): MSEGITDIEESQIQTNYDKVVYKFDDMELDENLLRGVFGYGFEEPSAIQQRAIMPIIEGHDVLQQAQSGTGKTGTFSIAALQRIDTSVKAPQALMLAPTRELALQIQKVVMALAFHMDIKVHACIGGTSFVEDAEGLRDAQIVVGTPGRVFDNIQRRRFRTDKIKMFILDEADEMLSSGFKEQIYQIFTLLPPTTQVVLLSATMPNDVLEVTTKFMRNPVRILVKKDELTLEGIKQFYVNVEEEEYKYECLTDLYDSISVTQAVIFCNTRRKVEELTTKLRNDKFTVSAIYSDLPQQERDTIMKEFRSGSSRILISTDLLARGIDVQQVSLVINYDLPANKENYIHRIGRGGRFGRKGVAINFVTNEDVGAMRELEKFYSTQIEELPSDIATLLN

Turning to `Oc1ccc(C=Cc2cc(O)cc(O)c2)cc1` [resveratrol], the mean lifespan was 17 days of adulthood in data set [1] (N2 worms fed daf-16(RNAi), vehicle 17, P=0.3305); 20 days of adulthood in data set [1] (N2 worms fed gfp(RNAi) control, vehicle 19, P=0.0006); 24 days of adulthood in data set [1] (N2 worms fed inf-1(RNAi) (eIF4A), vehicle 26, P=0.4687). Besides, the “behaviour in culture medium” value in data set [2] is on record as “precipitated out of the culture medium”. In addition, in data set [3], the “protection of TAP-tagged Tif1 from proteolysis” value is listed as “protects the TAP-tagged Tif1”. Besides, the “effect of Tif1 A64Q point mutation on resveratrol protection” value in data set [4] is listed as “confers resistance to resveratrol”.
